Test results from patent publication US9546157B2, “Asymmetric piperidinyl-substituted ureas as medicines” (Helsinn Healthcare SA, priority 2014, dated 2017).

Columns and labels:
GHSR1a [1] = target: T1, GHSR1a (Homo sapiens, UniProt Q92847); test: Calcium FLIPR assay, GHSR-1a antagonism (reduction of ghrelin response); type: cell-based; details: HEK293/GHSR1a cells, ghrelin 10 nM
T1 construct: expressed in transfected cells; host or cells: HEK293
Method in brief: (§1)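 Calcium flux measured by FLIPR in GHSR1a-expressing HEK293 cells after 30-60 min dye preloading. Compound was added at t=20 sec, alone for agonism or with ghrelin (10 nM) for antagonism, and fluorescence recorded for 2 minutes. EC50 and IC50 were estimated from dose-response data.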

GHSR1a [2] = target: T1, GHSR1a; test: Calcium FLIPR assay, GHSR-1a agonism; type: cell-based; set-up: Emax: unit not given here; details: HEK293/GHSR1a cells
Method in brief: as §1

T1 sequence (Q92847 whole entry): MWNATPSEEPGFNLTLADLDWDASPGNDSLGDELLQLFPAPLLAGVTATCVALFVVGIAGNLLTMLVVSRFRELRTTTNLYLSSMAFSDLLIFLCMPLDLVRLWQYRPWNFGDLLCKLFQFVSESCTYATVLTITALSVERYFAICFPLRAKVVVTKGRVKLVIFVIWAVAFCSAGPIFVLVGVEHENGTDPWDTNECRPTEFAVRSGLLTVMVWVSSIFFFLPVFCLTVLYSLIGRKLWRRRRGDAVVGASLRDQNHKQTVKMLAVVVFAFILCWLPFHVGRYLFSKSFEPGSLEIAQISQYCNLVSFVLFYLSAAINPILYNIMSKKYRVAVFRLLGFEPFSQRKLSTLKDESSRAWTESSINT

| SMILES | IC50 (GHSR1a [1]) [nM] | EC50 (GHSR1a [2]) [nM] | Emax (GHSR1a [2]) |
| --- | --- | --- | --- |
| CC(NC(=O)N(C)C1CCN(C)CC1)c1ccc(-c2cnc(O)nc2)c(Cl)c1Cl (centres unmarked) [Compound H0797, 3-(1-(2,3-dichloro-4-(2-hydroxypyrimidin-5-yl)phenyl)ethyl)-1-methyl-1-(1-methylpiperidin-4-yl)urea] | 594 | 1800 | 2879 |
| CC(NC(=O)N(C)C1CCN(C)CC1)c1ccc(-c2cncc(-c3cn[nH]c3)c2)c(Cl)c1Cl (centres unmarked) [Compound H0707, 3-(1-(4-(5-(1H-pyrazol-4-yl)pyridin-3-yl)-2,3-dichlorophenyl)ethyl)-1-methyl-1-(1-methylpiperidin-4-yl)urea] | 185 | > 30000 |  |
| CC(NC(=O)N(C)C1CCN(C)CC1)c1ccc(-c2ccc(F)nc2)c(Cl)c1Cl (centres unmarked) [Compound H0618, 3-(1-(2,3-dichloro-4-(6-fluoropyridin-3-yl)phenyl)ethyl)-1-methyl-1-(1-methylpiperidin-4-yl)urea] | 40 | 130 |  |
| Cc1nccnc1-c1ccc(C(C)NC(=O)N(C)[C@@H]2CCN(C)CC2(C)C)c(Cl)c1Cl (stereo partly drawn) [Compound H0843, 3-(1-(2,3-dichloro-4-(3-methylpyrazin-2-yl)phenyl)ethyl)-1-methyl-1-((R)-1,3,3-trimethylpiperidin-4-yl)urea] | 35 | 51 | 1910 |
| CC(NC(=O)N(C)C1CCN(C)CC1)c1ccc(C#Cc2ccccn2)c(Cl)c1Cl (centres unmarked) [Compound H0734, 3-(1-(2,3-dichloro-4-(pyridin-2-ylethynyl)phenyl)ethyl)-1-methyl-1-(1-methylpiperidin-4-yl)urea] | 202 | > 30000 |  |
| CN1CCC(N(C)C(=O)NC2(c3ccc(-c4cncnc4)c(Cl)c3Cl)CCOCC2)CC1 [Compound H0727, 3-(4-(2,3-dichloro-4-(pyrimidin-5-yl)phenyl)tetrahydro-2H-pyran-4-yl)-1-methyl-1-(1-methylpiperidin-4-yl)urea] | 3600 | > 30000 |  |
| CC(NC(=O)N(C)C1CCN(C)CC1)c1ccc(-c2cn[nH]c2)c(Cl)c1F (centres unmarked) [Compound H0571, 3-(1-(3-chloro-2-fluoro-4-(1H-pyrazol-4-yl)phenyl)ethyl)-1-methyl-1-(1-methylpiperidin-4-yl)urea] | 154 | > 30000 |  |
| CC(NC(=O)N(C)C1CCN(C)CC1)c1ccc(-c2cncc(C(F)(F)F)n2)c(Cl)c1Cl (centres unmarked) [Compound H0910, 3-(1-(2,3-dichloro-4-(6-(trifluoromethyl)pyrazin-2-yl)phenyl)ethyl)-1-methyl-1-(1-methylpiperidin-4-yl)urea] | 125 | 19 | 1359 |
| CC(NC(=O)N(C)C1CCN(C)CC1)c1ccc(NC2CC2)c(Cl)c1Cl (centres unmarked) [Compound H0846, 3-(1-(2,3-dichloro-4-(cyclopropylamino)phenyl)ethyl)-1-methyl-1-(1-methylpiperidin-4-yl)urea] | 170 | 130 | 3815 |
| COC(=O)c1cncc(-c2ccc(C(C)NC(=O)N(C)C3CCN(C)CC3)c(Cl)c2Cl)c1 (centres unmarked) [Compound H0635, methyl 5-(2,3-dichloro-4-(1-(3-methyl-3-(1-methylpiperidin-4-yl)ureido)ethyl)phenyl)nicotinate] | 1090 | > 30000 |  |
| CN1CCC(N(C)C(=O)NC2(c3ccc(-c4cncnc4)c(Cl)c3Cl)CC2)CC1 [Compound H0673, 3-(1-(2,3-dichloro-4-(pyrimidin-5-yl)phenyl)cyclopropyl)-1-methyl-1-(1-methylpiperidin-4-yl)urea] | > 1000 | > 30000 |  |
| COCCn1cc(-c2ccc(C(C)NC(=O)N(C)C3CCN(C)CC3)c(Cl)c2Cl)cn1 (centres unmarked) [Compound H0694, 3-(1-(2,3-dichloro-4-(1-(2-methoxyethyl)-1H-pyrazol-4-yl)phenyl)ethyl)-1-methyl-1-(1-methylpiperidin-4-yl)urea] | 309 | > 30000 |  |
| COCc1cncc(-c2ccc(C(C)NC(=O)N(C)C3CCN(C)CC3)c(Cl)c2Cl)c1 (centres unmarked) [Compound H0708, 3-(1-(2,3-dichloro-4-(5-(methoxymethyl)pyridin-3-yl)phenyl)ethyl)-1-methyl-1-(1-methylpiperidin-4-yl)urea] | 1370 | > 30000 |  |
| CC(NC(=O)N(C)C1CCN(C)CC1)c1ccc(-c2cncc([N+](=O)[O-])c2)c(Cl)c1Cl (centres unmarked) [Compound H0766, 3-(1-(2,3-dichloro-4-(5-nitropyridin-3-yl)phenyl)ethyl)-1-methyl-1-(1-methylpiperidin-4-yl)urea] | 171 | > 30000 |  |
| CC(NC(=O)N(C)C1CCN(C)CC1)c1ccc(-c2cnc(N3CCN(C)CC3)nc2)c(Cl)c1Cl (centres unmarked) [Compound H0799, 3-(1-(2,3-dichloro-4-(2-(4-methylpiperazin-1-yl)pyrimidin-5-yl)phenyl)ethyl)-1-methyl-1-(1-methylpiperidin-4-yl)urea] | 5.4 | 14 | 5031 |
| CC(NC(=O)N(C)C1CCN(C)CC1)c1ccc(C#Cc2c[nH]cn2)c(Cl)c1Cl (centres unmarked) [Compound H0763, 3-(1-(4-((1H-imidazol-4-yl)ethynyl)-2,3-dichlorophenyl)ethyl)-1-methyl-1-(1-methylpiperidin-4-yl)urea] | 835 | > 30000 |  |
| C#Cc1ccc(C(CC2CC2)NC(=O)N(OC)C2CCN(C)CC2)c(Cl)c1Cl (centres unmarked) [Compound H0740, 3-(2-cyclopropyl-1-(2,3-dichloro-4-ethynylphenyl)ethyl)-1-methoxy-1-(1-methylpiperidin-4-yl)urea] | 7 | 1.5 | 3620 |
| CC(NC(=O)N(C)C1CCN(C)CC1)c1ccc(-c2cncc(Br)c2)c(Cl)c1Cl (centres unmarked) [Compound H0695, 3-(1-(4-(5-bromopyridin-3-yl)-2,3-dichlorophenyl)ethyl)-1-methyl-1-(1-methylpiperidin-4-yl)urea] | 78 | 5 |  |
| CN1CCC(N(C)C(=O)NC(CO)c2ccc(-c3cncnc3)c(Cl)c2Cl)CC1 (centres unmarked) [Compound H0670, 3-(1-(2,3-dichloro-4-(pyrimidin-5-yl)phenyl)-2-hydroxyethyl)-1-methyl-1-(1-methylpiperidin-4-yl)urea] | 523000 | > 30000 |  |
| CC(NC(=O)N(C)C1CCN(C)CC1)c1ccc(C2=CCCCC2)c(Cl)c1Cl (centres unmarked) [Compound H0520, 3-(1-(2,3-dichloro-2′,3′,4′,5′-tetrahydro-[1,1′-biphenyl]-4-yl)ethyl)-1-methyl-1-(1-methylpiperidin-4-yl)urea] | 202 | 394 |  |
| CC(NC(=O)N(C)C1CCN(C)CC1)c1ccc(-c2cnc(-n3ccnc3)nc2)c(Cl)c1Cl (centres unmarked) [Compound H0803, 3-(1-(4-(2-(1H-imidazol-1-yl)pyrimidin-5-yl)-2,3-dichlorophenyl)ethyl)-1-methyl-1-(1-methylpiperidin-4-yl)urea] | 171 | 149 | 2364 |
| CC(NC(=O)N(C)C1CCN(C)CC1)c1ccc(-c2cnc3ccccc3n2)c(Cl)c1Cl (centres unmarked) [Compound H0828, 3-(1-(2,3-dichloro-4-(quinoxalin-2-yl)phenyl)ethyl)-1-methyl-1-(1-methylpiperidin-4-yl)urea] | 376 | > 30000 |  |
| CC(NC(=O)N(C)C1CCN(C)CC1)c1ccc(-c2cnc[nH]2)c2ccccc12 (centres unmarked) [Compound H0599, 3-(1-(4-(1H-imidazol-5-yl)naphthalen-1-yl)ethyl)-1-methyl-1-(1-methylpiperidin-4-yl)urea] | 212 | 478 |  |
